Experimental findings from patent EP2650284A1, “Heterocyclic derivatives as metabotropic glutamate receptor modulators” (Merz Pharma GmbH & Co. KGaA, priority 2012, dated 2013) are described below.

The target of test [1] is T1, human metabotropic glutamate receptor mGluR5 (Homo sapiens, UniProt P41594).
T1 construct: expressed in transfected cells; host or cells: CHO-K1 (h5CHO), IPTG-inducible
The test can be described thus: Cytosolic calcium studies with stably transfected cells (h5CHO), functional assay of mGluR5 receptors. The test is classed as cell-based. The settings on record: Table A3 (SAMs / very weak PAMs); agonist EC50 shift with 10 µM modulator or vehicle; h5CHO cells. In outline:
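IPTG-induced h5CHO (CHO-K1 expressing human mGluR5) loaded with calcium dye; compounds (0.5% DMSO) added 5 min before agonist. NAM IC50 against L-quisqualate at ~EC80; PAM EC50 with EC20 L-glutamate. FLIPR fluorescence, max-minus-min, % of maximal response, logistic fit.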

For the next test, the target named is T2, mGluR5 binding site (Rattus norvegicus, UniProt P31424).
T2 construct: from tissue; host or cells: cortex of adult male Sprague-Dawley rats, membrane preparation
T2 sequence (P31424 21-1203): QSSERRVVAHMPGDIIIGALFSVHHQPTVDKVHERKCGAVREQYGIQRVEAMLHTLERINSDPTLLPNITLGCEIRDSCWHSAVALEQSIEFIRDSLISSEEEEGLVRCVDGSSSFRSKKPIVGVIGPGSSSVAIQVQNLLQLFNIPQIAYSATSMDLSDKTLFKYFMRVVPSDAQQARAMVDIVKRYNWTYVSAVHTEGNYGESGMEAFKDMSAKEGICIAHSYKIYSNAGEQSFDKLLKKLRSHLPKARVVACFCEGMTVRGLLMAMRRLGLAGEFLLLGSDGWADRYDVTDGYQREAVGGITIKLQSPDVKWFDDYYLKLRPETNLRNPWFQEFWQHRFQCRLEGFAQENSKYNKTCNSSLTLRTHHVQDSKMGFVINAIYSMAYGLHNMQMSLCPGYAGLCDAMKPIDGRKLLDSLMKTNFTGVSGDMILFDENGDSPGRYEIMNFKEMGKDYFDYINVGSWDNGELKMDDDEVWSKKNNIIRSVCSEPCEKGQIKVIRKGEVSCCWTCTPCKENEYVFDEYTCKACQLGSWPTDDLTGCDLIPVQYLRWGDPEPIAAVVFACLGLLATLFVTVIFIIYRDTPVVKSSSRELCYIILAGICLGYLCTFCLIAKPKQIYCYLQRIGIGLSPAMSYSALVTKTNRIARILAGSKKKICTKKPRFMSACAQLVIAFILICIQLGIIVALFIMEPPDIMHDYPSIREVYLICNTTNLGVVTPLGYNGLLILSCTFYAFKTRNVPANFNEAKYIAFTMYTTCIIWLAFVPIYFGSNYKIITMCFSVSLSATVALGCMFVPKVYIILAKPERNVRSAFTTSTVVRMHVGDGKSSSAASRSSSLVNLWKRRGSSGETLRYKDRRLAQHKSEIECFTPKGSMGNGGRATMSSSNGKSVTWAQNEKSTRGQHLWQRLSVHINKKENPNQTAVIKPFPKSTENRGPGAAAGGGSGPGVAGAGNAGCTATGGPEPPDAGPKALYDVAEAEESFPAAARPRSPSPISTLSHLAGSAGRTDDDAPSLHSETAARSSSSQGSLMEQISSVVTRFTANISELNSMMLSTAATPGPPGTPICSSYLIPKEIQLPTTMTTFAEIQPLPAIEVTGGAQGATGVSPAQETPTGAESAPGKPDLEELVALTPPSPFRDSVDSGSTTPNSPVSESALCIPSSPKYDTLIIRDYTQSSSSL
As to the kind of experiment: [3H]-M-MPEP displacement studies on rat cortical membranes. The settings on record: Table A3, [3H]-M-MPEP 2 nM, 4°C for 1 h, median, read-out: Ki (MMPEP). Here is the method: Tissue preparation is performed according to Foster & Wong (Br. J. Pharmacol., 1987, 91, 403-409) with some modifications. Anaesthetised male Sprague-Dawley rats (200-250 g, Janvier, Le Genest-Isle, France) are decapitated and their brains are removed rapidly. The cortex is dissected out and processed as described by Parsons, et al. (J. Pharmacol. Exp. Ther., 1997, 283(3): 1264-1275). For isolation of the cell membranes, the cortices are homogenized in 20 volumes of ice-cold 0.32 M sucrose (Sigma-Aldrich, Taufkirchen, Germany) using a glass-Teflon homogenizer. The homogenate is centrifuged at 1000 x g for 10 minutes, the pellet is discarded and the supernatant centrifuged at 20,000 x g for 20 minutes. The resulting pellet is resuspended in 20 volumes of distilled water and centrifuged for 20 minutes at 8000 x g. The supernatant and the buffy coat are then centrifuged six times (48,000 x g for 20 minutes) in the presence of 5 mM Tris-HCl, pH 7.5. All centrifugation steps are carried out at 4°C. After resuspension in 5 volumes of 5 mM Tris-HCl, pH 7.5, the membrane suspension is frozen rapidly at -80°C.
On the day of assay, the membrane suspensions are thawed, centrifuged (48,000 x g for 20 minutes) and then resuspended in 50 mM Tris-HCl, pH 7.5 (assay buffer). The amount of protein in the final membrane preparation is determined according to the method of Lowry, et al. (J. Biol. Chem., 1951, 193, 256-275). The final concentration used for our studies is 400 µg / ml.
The Tecan robotic system designed for binding assays is loaded with the membrane solution, a 96 well stock plate containing the solutions for bound control (buffer/DMSO 10%), unlabeled MPEP (10 µM) for evaluation of non-specific binding, all compounds to be tested (at 20-fold concentrations), various empty 96-well plates for dilutions and the final assay plates, as well as a 96-well plate filled with the radioligand.
Before performing displacement studies, saturation experiments are performed to determine the equilibrium dissociation constant (Kd, Cheng and Prussoff, Biochem. Pharmacol., 1973, 22: 3099-3108) of [^3H]-M-MPEP, which is a parameter for the affinity of the radioligand to the binding site. On the basis of the saturation experiments, a final [^3H]-M-MPEP concentration of 2 nM was selected.
Firstly, the assay plates are loaded with membrane solution and are shaken at 4°C. The mother plates were then prepared by pipetting the compounds (n = 5) into assay buffer/10% DMSO to obtain the desired final concentrations. After transferring radioligand into the assay plates, the compounds are added (including the non-specific binding control containing MPEP). The final DMSO concentration is always 1 %. The assay plates are incubated and shaken at 4°C for 1 h, before the mixture is exhausted as rapidly as possible via a vacuum manifold using the Multiscreen HTS glass fibre (type B) high flow filter plates (Millipore, Schwalbach, Germany) under a constant vacuum of 450 mbar. The membranes are washed four times with cold assay buffer (100 µL). 50 µL of Ultima Gold scintillation cocktail (PerkinElmer) is added to the wet filter plates and incubated at rt overnight before counting the disintegration per minutes using a liquid scintillation counter (MicroBeta, PerkinElmer).
For the evaluation of the test compound binding affinity to the mGluR5 binding site and its potency to displace [^3H]-M-MPEP, the measured radioactivity of the radioligand alone was set as 100% bound control and the non-specific binding of the radioligand represented the 0% control. The residual radioactivity after displacement of the test compound was then corrected with respect to the set controls. Data are given as median IC50 and Ki, respectively.

T1 sequence (P41594 21-1212): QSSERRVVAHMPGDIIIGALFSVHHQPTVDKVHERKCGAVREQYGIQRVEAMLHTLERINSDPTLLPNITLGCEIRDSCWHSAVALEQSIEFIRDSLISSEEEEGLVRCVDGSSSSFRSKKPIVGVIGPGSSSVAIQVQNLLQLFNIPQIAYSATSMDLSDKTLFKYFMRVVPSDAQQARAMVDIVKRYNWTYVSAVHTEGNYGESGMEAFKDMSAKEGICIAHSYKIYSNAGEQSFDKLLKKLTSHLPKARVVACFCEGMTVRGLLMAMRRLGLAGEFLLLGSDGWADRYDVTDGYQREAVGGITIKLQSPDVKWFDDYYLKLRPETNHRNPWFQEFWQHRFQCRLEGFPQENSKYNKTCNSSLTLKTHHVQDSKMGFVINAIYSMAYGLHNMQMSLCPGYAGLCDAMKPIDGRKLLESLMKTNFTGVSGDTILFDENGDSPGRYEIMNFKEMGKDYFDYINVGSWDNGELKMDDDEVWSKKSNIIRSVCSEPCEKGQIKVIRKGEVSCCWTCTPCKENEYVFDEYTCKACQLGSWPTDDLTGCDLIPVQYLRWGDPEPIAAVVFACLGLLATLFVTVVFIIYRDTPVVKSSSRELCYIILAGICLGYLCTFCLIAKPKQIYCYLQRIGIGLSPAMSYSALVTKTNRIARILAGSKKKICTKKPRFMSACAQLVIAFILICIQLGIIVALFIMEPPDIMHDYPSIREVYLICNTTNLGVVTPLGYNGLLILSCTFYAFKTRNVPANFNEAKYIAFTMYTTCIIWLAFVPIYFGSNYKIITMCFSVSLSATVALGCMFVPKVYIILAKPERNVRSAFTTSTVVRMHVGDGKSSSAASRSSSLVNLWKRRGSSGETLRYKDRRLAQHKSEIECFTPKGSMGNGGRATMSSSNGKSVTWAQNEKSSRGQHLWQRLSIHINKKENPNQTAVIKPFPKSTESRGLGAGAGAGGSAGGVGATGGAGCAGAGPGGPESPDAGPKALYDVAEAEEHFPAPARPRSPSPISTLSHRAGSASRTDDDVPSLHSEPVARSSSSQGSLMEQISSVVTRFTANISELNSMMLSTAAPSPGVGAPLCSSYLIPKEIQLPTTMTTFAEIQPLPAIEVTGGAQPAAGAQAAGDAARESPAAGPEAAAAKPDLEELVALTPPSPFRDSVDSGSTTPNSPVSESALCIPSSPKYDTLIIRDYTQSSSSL

With “(rac)-cis-Methyl 3-((3-fluorophenyl)ethynyl)-6a,7,9,9a-tetrahydro-5H-pyrrolo[3,4-h]quinoline-8(6H)-carboxylate [Example 32]”, the h left shift in test [1] was 0.9-fold. Besides, the Ki (as a rule, a measure of affinity in units of concentration, obtained from inhibition or displacement) on mGluR5 binding site was found to be 49.3 nM.
